According to the NIST ThermoML archive (doi:10.1021/je300678r):
Where “and” joins values, the source holds several entries; their conditions need not be identical. Equal values may be shown once.

Columns and labels:
[1] = refractive index (Na D-line) (dimensionless); xn = mol fraction of the nth substance listed; details: 298.15 K, 101 kPa, Liquid, Standard Abbe refractometry
[2] = Liquid; for mass density: 101.33 kPa, Vibrating tube method; for vapor or sublimation pressure: Ebulliometric method (Recirculating still)
[3] = refractive index (Na D-line) (dimensionless); details: 101.33 kPa, Liquid, Standard Abbe refractometry
[4] = xn = mol fraction of the nth substance listed; details: 298.15 K, 101 kPa, Liquid, Vibrating tube method
[5] = excess molar enthalpy (molar enthalpy of mixing); xn = mol fraction of the nth substance listed; details: 298.15 K, 101 kPa, Liquid, Flow calorimetry

CC(=O)CC(C)C [4-methylpentan-2-one] + CCC(C)(C)O
Details | refractive index
[1], x1 = 1 | 1.39352

CC(=O)CC(C)C [4-methylpentan-2-one] + CCCCC(CC)CO
Details | refractive index
[1], x1 = 1 | 1.39346

CCC(C)(C)O [2-methylbutan-2-ol]
Details | mass density [kg/m3] | refractive index | vapor or sublimation pressure [kPa]
[2], 297.85 K | 805.3 | – | –
[2], 336.04 K | – | – | 19.84
[2], 344.75 K | – | – | 29.94
[2], 351.29 K | – | – | 39.96
[2], 356.6 K | – | – | 49.95
[2], 361.18 K | – | – | 60.05
[2], 365.4 K | – | – | 70.74
[2], 368.07 K | – | – | 78.27
[2], 368.16 K | – | – | 78.09
[2], 368.75 K | – | – | 80.2
[2], 371.97 K | – | – | 90.23
[2], 375.14 K | – | – | 100.74
[2], 375.38 K | – | – | 101.88
[2], 375.53 K | – | – | 102.61
[3], 297.85 K | – | 1.4025 | –
[3], 298.15 K | – | 1.40253 | –

CCCCC(CC)CO (centres undefined) [2-ethyl-1-hexanol] + CC(=O)CC(C)C
Details | excess molar enthalpy, [5] | mass density, [4] | refractive index, [1]
x2 = 0 | – | – | 1.42949
x2 = 0.0516 | – | – | 1.42806
x2 = 0.1009 | 0.132 kcal/mol | 826.11 kg/m3 | –
x2 = 0.1017 | – | – | 1.4266
x2 = 0.2001 | 0.236 kcal/mol | 823.29 kg/m3 | –
x2 = 0.2045 | – | – | 1.42351
x2 = 0.3019 | 0.313 kcal/mol | 820.27 kg/m3 | –
x2 = 0.397 | – | – | 1.41723
x2 = 0.4014 | 0.361 kcal/mol | 817.23 kg/m3 | –
x2 = 0.5009 | 0.38 kcal/mol | 813.99 kg/m3 | –
x2 = 0.6018 | 0.371 kcal/mol | 810.67 kg/m3 | –
x2 = 0.605 | – | – | 1.41
x2 = 0.7019 | 0.329 kcal/mol | 807.13 kg/m3 | –
x2 = 0.7986 | – | – | 1.40249
x2 = 0.8009 | 0.258 kcal/mol and 0.257 kcal/mol | 803.8 kg/m3 and 803.62 kg/m3 | –
x2 = 0.9004 | 0.149 kcal/mol | 800.06 kg/m3 | –
x2 = 0.9051 | – | – | 1.39848
x2 = 0.9491 | – | – | 1.39587

CCCCC(CC)CO (centres undefined) [2-ethyl-1-hexanol]
Details | mass density [kg/m3] | refractive index | vapor or sublimation pressure [kPa]
[2], 297.86 K | 828.8 | – | –
[2], 389.76 K | – | – | 9.88
[2], 407.11 K | – | – | 19.88
[2], 418.24 K | – | – | 30.03
[2], 426.95 K | – | – | 39.67
[2], 430.79 K | – | – | 45.05
[2], 433.51 K | – | – | 49.22
[2], 437.24 K | – | – | 55.52
[2], 439.49 K | – | – | 59.61
[2], 442.12 K | – | – | 64.64
[2], 445 K | – | – | 70.55
[2], 447.04 K | – | – | 75.01
[2], 449.02 K | – | – | 79.55
[2], 451.06 K | – | – | 84.49
[2], 456.77 K | – | – | 99.44
[2], 457.83 K | – | – | 102.2
[2], 458.23 K | – | – | 102.91
[2], 458.24 K | – | – | 103.26
[3], 297.86 K | – | 1.4295 | –
[3], 298.15 K | – | 1.42949 | –

CCC(C)(C)O [2-methylbutan-2-ol] + CC(=O)CC(C)C
Details | excess molar enthalpy, [5] [kcal/mol] | mass density, [4] | refractive index, [1]
x2 = 0 | – | – | 1.40253
x2 = 0.0598 | – | – | 1.40217
x2 = 0.1012 | 0.106 | 804.47 kg/m3 | –
x2 = 0.1216 | – | – | 1.40156
x2 = 0.2017 | 0.196 | 803 kg/m3 | –
x2 = 0.2171 | – | – | 1.40043
x2 = 0.3013 | 0.263 | 801.45 kg/m3 | –
x2 = 0.4017 | 0.307 | 800.01 kg/m3 and 800 kg/m3 | –
x2 = 0.4095 | – | – | 1.39811
x2 = 0.5008 | 0.327 | 798.73 kg/m3 | –
x2 = 0.5982 | – | – | 1.39615
x2 = 0.6006 | 0.321 | 797.67 kg/m3 | –
x2 = 0.7009 | 0.288 | 796.87 kg/m3 | –
x2 = 0.8017 | 0.227 | 796.33 kg/m3 | –
x2 = 0.8202 | – | – | 1.39439
x2 = 0.9007 | 0.132 | 796.12 kg/m3 | –
x2 = 0.9177 | – | – | 1.39383
x2 = 0.9563 | – | – | 1.39364

CC(=O)CC(C)C [4-methylpentan-2-one] + CCC(C)O
Details | excess molar enthalpy, [5] | mass density, [4] | refractive index, [1]
x1 = 0.0502 | – | – | 1.39473
x1 = 0.1005 | – | – | 1.39443
x1 = 0.1009 | 0.161 kcal/mol | 800.64 kg/m3 | –
x1 = 0.2005 | – | – | 1.39392
x1 = 0.2009 | 0.272 kcal/mol | 799.14 kg/m3 | –
x1 = 0.3007 | 0.344 kcal/mol | 798.02 kg/m3 | –
x1 = 0.3998 | – | – | 1.39335
x1 = 0.4015 | 0.384 kcal/mol and 0.385 kcal/mol | 797.16 kg/m3 and 797.13 kg/m3 | –
x1 = 0.5008 | 0.396 kcal/mol | 796.55 kg/m3 | –
x1 = 0.602 | – | – | 1.39309
x1 = 0.6021 | 0.38 kcal/mol | 796.12 kg/m3 | –
x1 = 0.7004 | 0.336 kcal/mol | 795.9 kg/m3 | –
x1 = 0.7988 | – | – | 1.39313
x1 = 0.7998 | 0.262 kcal/mol | 795.84 kg/m3 | –
x1 = 0.8985 | – | – | 1.39325
x1 = 0.8998 | 0.155 kcal/mol | 795.97 kg/m3 | –
x1 = 0.9508 | – | – | 1.39335
x1 = 1 | – | – | 1.39346

CC(=O)CC(C)C [4-methylpentan-2-one]
Details | mass density [kg/m3] | refractive index | vapor or sublimation pressure [kPa]
[2], 297.84 K | 796.4 | – | –
[2], 340.18 K | – | – | 19.35
[2], 340.66 K | – | – | 19.78
[2], 343.42 K | – | – | 21.92
[2], 351.55 K | – | – | 30.01
[2], 352.71 K | – | – | 31.12
[2], 353.11 K | – | – | 31.71
[2], 359.22 K | – | – | 39.35
[2], 359.39 K | – | – | 39.63
[2], 359.58 K | – | – | 40.05
[2], 362.88 K | – | – | 44.7
[2], 365.9 K | – | – | 49.68
[2], 366.61 K | – | – | 50.66
[2], 368.06 K | – | – | 53.01
[2], 368.07 K | – | – | 53.42
[2], 368.14 K | – | – | 53.26
[2], 368.15 K | – | – | 53.24
[2], 368.7 K | – | – | 54.29
[2], 371.34 K | – | – | 59.43
[2], 371.64 K | – | – | 59.75
[2], 371.91 K | – | – | 60.19
[2], 374.37 K | – | – | 65.18
[2], 376.26 K | – | – | 69.16
[2], 376.49 K | – | – | 69.98
[2], 378.8 K | – | – | 74.83
[2], 380.65 K | – | – | 79.56
[2], 381.06 K | – | – | 80.16
[2], 382.66 K | – | – | 84.16
[2], 384.99 K | – | – | 90.58
[2], 388.07 K | – | – | 98.7
[2], 388.31 K | – | – | 99.4
[2], 388.63 K | – | – | 100.35
[2], 388.65 K | – | – | 100.41
[2], 389.06 K | – | – | 101.85
[2], 389.49 K | – | – | 102.78
[3], 297.84 K | – | 1.3935 | –
[3], 298.15 K | – | 1.39346 and 1.39352 | –

CCC(C)O (centres undefined) [butan-2-ol] + CC(=O)CC(C)C
Details | refractive index
[1], x2 = 0 | 1.39512

CCC(C)O (centres undefined) [butan-2-ol]
Details | mass density, 297.83 K [kg/m3] | refractive index, 297.83 K | refractive index, 298.15 K | vapor or sublimation pressure, 358.16 K [kPa] | vapor or sublimation pressure, 367.97 K | vapor or sublimation pressure, 372.43 K [kPa] | vapor or sublimation pressure, 372.71 K [kPa]
[2] | 802.7 | – | – | 57.27 | 84.94 kPa and 85.16 kPa | 100.62 | 101.88
[3] | – | 1.3951 | 1.39512 | – | – | – | –
